# In PubChem BioAssay AID1963965 (Molecular Pharmacology Branch, DTP, NCI, 2024):
# System: 996289-038-R-J1-PDC spheroid viability
# Test: Anticancer human tumor 996289-038-R-J1-PDC patient-derived colon adenocarcinoma cell line growth inhibition [PI3K]
# Details: spheroids with HUVEC and MSC; for IC50: curve of first compound; for viability, T/C: stronger effect = lower value
# Outline: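 Combination activity was assessed by viability in multicellular tumor spheroids carrying HUVEC and MSC components. Agents were tested with PI3K inhibitors from a Cmax-based top dose (or 10 microM) downward in half-log increments.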
# 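Further: spheroids exposed to compounds for seven days before viability read.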
# 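Wherever viability, T/C is given: luminescence used as a proxy for viable cell amount; percent viability relative to DMSO vehicle control as 100%.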
smiles,measurement,setting,value
CC1(C)CCC(Nc2ncc(C(F)(F)F)c(-c3c[nH]c4c(P(C)(C)=O)c(C#N)ccc34)n2)CN1 (configuration not stated) + COc1c(OCCCN2CCOCC2)ccc2c3n(c(=NC(=O)c4cnc(N)nc4)nc12)CCN3,IC50,second compound 0.00316 µM,5.54 µM
same,IC50,second compound 0.01 µM,5.12 µM
same,IC50,second compound 0.0316 µM,4.48 µM
same,IC50,second compound 0.1 µM,3.46 µM
same,IC50,second compound 0.316 µM,< 0.0316 µM
same,IC50,second compound 1 µM,< 0.0316 µM
same,"viability, T/C","second compound 0.00316 µM, first compound 0.0316 µM",106%
same,"viability, T/C","second compound 0.00316 µM, first compound 0.1 µM",74.7%
same,"viability, T/C","second compound 0.00316 µM, first compound 0.316 µM",80%
same,"viability, T/C","second compound 0.00316 µM, first compound 1 µM",68.6%
same,"viability, T/C","second compound 0.00316 µM, first compound 3.16 µM",86.3%
same,"viability, T/C","second compound 0.00316 µM, first compound 10 µM",15%
same,"viability, T/C","second compound 0.01 µM, first compound 0.0316 µM",91.2%
same,"viability, T/C","second compound 0.01 µM, first compound 0.1 µM",78.9%
same,"viability, T/C","second compound 0.01 µM, first compound 0.316 µM",75.2%
same,"viability, T/C","second compound 0.01 µM, first compound 1 µM",75.8%
same,"viability, T/C","second compound 0.01 µM, first compound 3.16 µM",76.4%
same,"viability, T/C","second compound 0.01 µM, first compound 10 µM",13.6%
same,"viability, T/C","second compound 0.0316 µM, first compound 0.0316 µM",71.8%
same,"viability, T/C","second compound 0.0316 µM, first compound 0.1 µM",65.2%
same,"viability, T/C","second compound 0.0316 µM, first compound 0.316 µM",63.7%
same,"viability, T/C","second compound 0.0316 µM, first compound 1 µM",64.6%
same,"viability, T/C","second compound 0.0316 µM, first compound 3.16 µM",66%
same,"viability, T/C","second compound 0.0316 µM, first compound 10 µM",13%
same,"viability, T/C","second compound 0.1 µM, first compound 0.0316 µM",59.5%
same,"viability, T/C","second compound 0.1 µM, first compound 0.1 µM",53.4%
same,"viability, T/C","second compound 0.1 µM, first compound 0.316 µM",52.1%
same,"viability, T/C","second compound 0.1 µM, first compound 1 µM",49.7%
same,"viability, T/C","second compound 0.1 µM, first compound 3.16 µM",53.7%
same,"viability, T/C","second compound 0.1 µM, first compound 10 µM",8.16%
same,"viability, T/C","second compound 0.316 µM, first compound 0.0316 µM",34.6%
same,"viability, T/C","second compound 0.316 µM, first compound 0.1 µM",30.2%
same,"viability, T/C","second compound 0.316 µM, first compound 0.316 µM",34%
same,"viability, T/C","second compound 0.316 µM, first compound 1 µM",34%
same,"viability, T/C","second compound 0.316 µM, first compound 3.16 µM",28.5%
same,"viability, T/C","second compound 0.316 µM, first compound 10 µM",6.2%
same,"viability, T/C","second compound 1 µM, first compound 0.0316 µM",17%
same,"viability, T/C","second compound 1 µM, first compound 0.1 µM",14.3%
same,"viability, T/C","second compound 1 µM, first compound 0.316 µM",15.9%
same,"viability, T/C","second compound 1 µM, first compound 1 µM",17%
same,"viability, T/C","second compound 1 µM, first compound 3.16 µM",15.1%
same,"viability, T/C","second compound 1 µM, first compound 10 µM",4.85%
